Data: US20040235982A1, “Polymer emulsions resistant to biodeterioration” (priority 2003, published 2004)
Where a name gives a salt, the structure may show the parent alone. Read-outs that look alike come from different tables or passages of the source.

What was measured:
[1] = test system: mixed bacterial inoculum; details: for preservative efficacy (in words) / potentiation of the cationic compounds (in words): AIRFLEX 192; for Inoculations Passed: AIRFLEX 192 VAE polymer; for potentiation of the cationic compounds (in words): other metal chelating agent with cationic compound
Description: The following procedure was used to assess the preservative efficacy of several cationic compounds in an anionic surfactant stabilized VAE copolymer emulsion containing less than 1000 ppm vinyl acetate monomer:
(§1) Aeromonas hydrophilia, Alcaligenes faecalis, Corynebacterium ammoniagenes, Enterobacter aerogenes, Escherichia coli, Klebsiella pneumoniae, Pseudomonas aeruginosa, Proteus vulgaris, Providencia rettgeri, Pseudomonas stutzeri, Shewanella putrefaciens, Serratia liquefaciens, Acinetobacter baumannii, Burkholderia cepacia, Chryseobacterium meningosepticum, Sphingobacterium spiritivorum, Ralstonia pickettii, and Gluconoacetobacter liquefaciens.
(§2) Each bacterial culture was individually grown on nutrient agar slants, except GABL was grown on potato dextrose agar slants, by inoculating the agar surfaces. The nutrient agar slants were incubated for 24-48 hours at 30° C. and the potato dextrose agar slants were incubated for 48-72 hours at 25° C. […] The washings from all of the slants were combined into one sterile, Erlenmeyer flask.
(§3) Rapid Automated Bacterial Impedance Technique (RABIT), supplied by Microbiology International, and manufactured by Don Whitley Scientific, Ltd. utilizes the principal of impedance microbiology to detect and assess microbial activity in a given sample. Using the RABIT, microbial metabolism is monitored by measuring the amount of carbon dioxide produced by actively respiring microorganisms. The electrodes in the RABIT test cells are partially covered with alkaline agar containing potassium hydroxide. As inoculated test samples are monitored on the RABIT, carbon dioxide produced from microbial metabolism is absorbed by the alkaline agar resulting in a change in conductivity. Conductivity is monitored with time and the time to reach a pre-specified rate of reduction in conductivity is termed the time to detection (TTD). Therefore, the shorter the TTD, the higher the number of microorganisms present. Failure can be defined as three successive decreases in conductivity equal to or greater than a pre-specified value (−10 microSiemens is recommended by the manufacturer) at any time during the 72 hour RABIT monitoring period. Alternatively, failure can be defined as a pre-specified total change in conductivity.
(§4) Samples (50 g each) of each test emulsion containing a test antimicrobial agent were inoculated with 1.0 mL of the mixed bacterial inoculum. After mixing well, the samples were then placed in a 30° C. incubator. After 1, 2, and 6 days of incubation, each sample was streak plated onto nutrient agar and potato dextrose agar to assess the level of surviving microorganisms. The nutrient agar plates were incubated at 30° C. for 48 hours before assessing the growth. […] On the seventh day of incubation, each test emulsion sample was inoculated again with a freshly prepared mixed bacterial inoculum, mixed well, then placed back into the incubator. The samples were again streak plated onto nutrient agar and potato dextrose agar after incubating for 1, 2, and 6 days since the second inoculation. On the fourteenth day after the test was initiated, the test emulsions were inoculated a third time with another freshly prepared mixed bacterial inoculum and then placed back into the incubator. The samples were again streak plated onto nutrient agar and potato dextrose agar after 1, 2, 6, and 13 days of incubation since the third inoculation to assess surviving microorganisms. Test failure is defined as a microbial viable count >300 CFU/10 μL observed from the nutrient agar or potato dextrose agar streak plate assessments.
(§5) A small amount of a microbial nutrient (typically yeast extract) was added to each emulsion test sample (50 g) containing a test antimicrobial agent. The resulting samples were then inoculated with 1.0 mL of the mixed bacterial inoculum. After mixing well, an aliquot (5 g) of each test sample was placed into separate RABIT indirect conductivity tubes.

[2] = test system: yeasts and molds; assay: Fungal biochallenge test in Airflex 410 VAE polymer emulsion; details: for Growth on PDA / Surface Fungal Growth: 200 ppm; for Growth on PDA: streak plate after 28 days incubation; for Surface Fungal Growth: visual after 28 days at 25° C.
[3] = test system: mixed bacterial inoculum; details: for preservative efficacy (in words) / potentiation of the cationic compounds (in words): AIRFLEX 410; for Inoculations Passed: AIRFLEX 410 VAE polymer; for potentiation of the cationic compounds (in words): other metal chelating agent with cationic compound
Description: as §1, §2, §3, §4
as §5, with “tubes. The indirect conductivity tubes were then placed into the RABIT incubator modules set at 30° C. and the conductivity changes monitored for up to 72 hours. The remainder of each test sample was stored in a 30° C. incubator during the RABIT monitoring period.” for “tubes.”

[4] = metal chelating agent by itself
[5] = biocide dosage 1000 ppm active ingredient
[6] = biocide dosage 300 ppm active ingredient
[7] = cationic compound alone, dosage of 300 ppm or similar dosages

O=C([O-])CN(CCN(CC(=O)[O-])CC(=O)[O-])CC(=O)[O-].[Na+].[Na+].[Na+].[Na+] [EDTA salt, tetrasodium salt of ethylenediamine tetraacetic acid]
preservative efficacy (in words) [1, 4]: inadequate
Inoculations Passed [1, 5]: 0
Growth on PDA [2]: Dense
Surface Fungal Growth [2]: Slight Growth
protection against the growth of yeasts and molds (in words) ([2]; used by itself): no protection
preservative efficacy (in words) [3, 4]: inadequate
Inoculations Passed [3, 5]: 0

CCCCCCCCCCCCCCCC[n+]1ccccc1 [CPC, cetylpyridinium chloride]
Inoculations Passed [1, 6]: 0
Inoculations Passed [3, 6]: 0

O=C(O)/C=C\C(=O)O [Maleic acid, sodium salt]
potentiation of the cationic compounds (in words) [1]: do not exhibit potentiation
Inoculations Passed [1, 6]: 0
potentiation of the cationic compounds (in words) [3]: do not exhibit potentiation

CCCCCCCCCC[N+](C)(C)CCCCCCCCCC.[Cl-] [BTC 1010, Didecyldimethylammonium chloride]
preservative efficacy (in words) [1, 7]: no preservative efficacy
Inoculations Passed [1, 6]: 0
Growth on PDA [2]: Dense
Surface Fungal Growth [2]: Moderate Growth
preservative efficacy (in words) [3, 7]: no preservative efficacy
Inoculations Passed [3, 6]: 0

O=C([O-])c1ccccc1O.[Na+] [Salicylic acid, sodium salt]
Inoculations Passed [1, 6]: 0

O=C(O)CC(O)(CC(=O)O)C(=O)O [Citric acid, sodium salt]
potentiation of the cationic compounds (in words) [1]: do not exhibit potentiation
Inoculations Passed [1, 6]: 0
potentiation of the cationic compounds (in words) [3]: do not exhibit potentiation

CCCCCCCCCCCCNC(=N)N.Cl [DGH, n-dodecylguanidine hydrochloride]
Inoculations Passed ([1]; biocide dosage 400 ppm active ingredient): 0
Inoculations Passed [3, 6]: 0

O=P([O-])([O-])[O-].[Na+].[Na+].[Na+] [Trisodium phosphate]
Inoculations Passed [1, 6]: 0
